Experiment [1] addresses T1, thyroid peroxidase (TPO), rat thyroid microsomes (Rattus norvegicus, UniProt P14650).
T1 sequence (P14650 32-914): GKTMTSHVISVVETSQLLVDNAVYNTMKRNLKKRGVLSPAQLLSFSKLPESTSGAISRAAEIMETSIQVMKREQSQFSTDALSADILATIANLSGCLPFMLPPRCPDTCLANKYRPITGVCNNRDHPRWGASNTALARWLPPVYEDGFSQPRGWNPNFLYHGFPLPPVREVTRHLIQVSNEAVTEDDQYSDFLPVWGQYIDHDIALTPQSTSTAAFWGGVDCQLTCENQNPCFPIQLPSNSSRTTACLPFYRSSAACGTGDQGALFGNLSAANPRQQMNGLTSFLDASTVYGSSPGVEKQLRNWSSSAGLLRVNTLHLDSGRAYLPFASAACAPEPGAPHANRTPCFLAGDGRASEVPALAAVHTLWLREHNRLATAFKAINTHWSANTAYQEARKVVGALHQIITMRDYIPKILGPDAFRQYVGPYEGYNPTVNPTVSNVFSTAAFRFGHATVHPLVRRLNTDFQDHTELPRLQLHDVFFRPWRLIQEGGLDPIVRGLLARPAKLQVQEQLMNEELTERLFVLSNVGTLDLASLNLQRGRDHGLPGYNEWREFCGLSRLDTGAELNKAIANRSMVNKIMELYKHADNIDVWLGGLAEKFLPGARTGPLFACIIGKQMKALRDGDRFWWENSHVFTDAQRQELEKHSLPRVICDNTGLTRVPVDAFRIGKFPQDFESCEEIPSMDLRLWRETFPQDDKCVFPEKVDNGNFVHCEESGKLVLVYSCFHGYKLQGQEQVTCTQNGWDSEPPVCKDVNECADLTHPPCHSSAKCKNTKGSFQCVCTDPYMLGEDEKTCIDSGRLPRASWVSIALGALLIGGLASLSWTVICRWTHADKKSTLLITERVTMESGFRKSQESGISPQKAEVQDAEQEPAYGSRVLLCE
Description: TPO activity assay, MIT to DIT monoiodination, LC-MS/MS. The format is biochemical. Conditions: result in words.

The target of experiment [2] is T1, thyroid peroxidase (TPO), rat thyroid microsomes. Briefly: Battery of TPO assays, summary of IC50 across reactions. The format is biochemical.

The record followed here is PMC8320612 (Current Research in Toxicology, 2021).

The term IC50 denotes the concentration that gives 50% inhibition. Read a high IC50 as weaker potency.

For the compound `O=c1c(-c2ccc(O)cc2)coc2cc(O)ccc12` [DZN, Daidzein], in experiment [1], the “Effect on MIT to DIT iodination” value is reported as “no adverse effects”. Further, in experiment [2], the IC50 lay in the range of 19.7 to 57.3 µM.
